Experimental findings from patent publication US20220056043A1, “NITROGEN-CONTAINING FUSED CYCLIC COMPOUND, PREPARATION METHOD THEREFOR AND USE THEREOF” (SICHUAN KELUN-BIOTECH BIOPHARMACEUTICAL CO., LTD., priority 2019, published 2022) are described below.

One series has as its target T1, hNLRP3 inflammasome (Homo sapiens, UniProt Q96P20).
T1 construct: endogenous in cells; host or cells: THP-1 cells, PMA-differentiated
In words: Agonistic effect on the expression of IL-1β in THP-1 cells after PMA-induced differentiation (HTRF). It is filed as cell-based. The conditions noted are these: IL-1β level, PMA-differentiated THP-1 cells, 6 hours. The gist of the method:
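THP-1 cells differentiated with 1 μM PMA for 24 h, then replated at 1×10^5 cells/well in RPMI 1640 with 2% FBS. Compounds added for 6 h at 37 °C, 5% CO2. Supernatant IL-1β measured by HTRF; EC50 from four-parameter variable-slope fit.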

A further series addresses T2, hTLR7 (Homo sapiens, UniProt Q9NYK1).
T2 construct: host or cells: HEK-hTLR7-NF-κB-Luciferase cells
T2 sequence (Q9NYK1 27-1049): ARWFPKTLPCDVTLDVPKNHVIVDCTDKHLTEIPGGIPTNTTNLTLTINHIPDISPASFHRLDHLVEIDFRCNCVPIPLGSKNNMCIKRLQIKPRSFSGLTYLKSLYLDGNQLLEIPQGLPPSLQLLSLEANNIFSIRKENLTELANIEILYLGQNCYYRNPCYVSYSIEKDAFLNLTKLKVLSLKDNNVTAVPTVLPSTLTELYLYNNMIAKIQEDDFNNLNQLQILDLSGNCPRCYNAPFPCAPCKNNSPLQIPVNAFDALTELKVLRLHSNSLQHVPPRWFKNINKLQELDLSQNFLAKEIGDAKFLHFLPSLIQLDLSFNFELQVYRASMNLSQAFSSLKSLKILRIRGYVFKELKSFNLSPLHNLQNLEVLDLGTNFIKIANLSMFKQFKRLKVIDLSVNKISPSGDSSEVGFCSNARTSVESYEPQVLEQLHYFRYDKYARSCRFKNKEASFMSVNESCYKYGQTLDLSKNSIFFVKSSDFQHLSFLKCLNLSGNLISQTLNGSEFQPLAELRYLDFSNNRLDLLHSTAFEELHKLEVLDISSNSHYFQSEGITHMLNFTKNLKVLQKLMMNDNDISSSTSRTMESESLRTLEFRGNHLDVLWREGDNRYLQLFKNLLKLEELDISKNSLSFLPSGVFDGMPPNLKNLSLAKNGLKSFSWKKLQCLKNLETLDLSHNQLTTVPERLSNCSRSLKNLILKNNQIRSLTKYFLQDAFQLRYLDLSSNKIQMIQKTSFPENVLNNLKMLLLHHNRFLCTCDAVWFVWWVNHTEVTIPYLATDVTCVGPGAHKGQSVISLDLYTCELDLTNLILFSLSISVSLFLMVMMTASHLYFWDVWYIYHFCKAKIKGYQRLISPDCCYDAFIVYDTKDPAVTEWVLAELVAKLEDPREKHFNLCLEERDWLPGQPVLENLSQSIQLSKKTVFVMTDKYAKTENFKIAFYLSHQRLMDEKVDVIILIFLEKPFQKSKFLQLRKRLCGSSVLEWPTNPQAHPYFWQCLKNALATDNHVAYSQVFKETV
The experiment in a line: Agonistic effect on hTLR7, HEK-hTLR7-NF-κB-Luciferase reporter cells. In kind it is cell-based. The note with it: 16 hours. In short, it runs like this: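 HEK cells carrying human TLR7 and NF-κB-luciferase reporter, […] in DMEM with 10% FBS, exposed to compound for 16 h at 37 °C, 5% CO2; serves as specificity counterscreen to NLRP3 activity. Luminescence (RLU) after 5 min with luciferase reagent; EC50 by four-parameter variable-slope fit.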

Another series concerns the target T3, CYP2D6 (Homo sapiens, UniProt P10635).
T3 construct: purchased
The experiment in a line: CYP enzyme inhibition test, Vivid CYP2D6 Cyan Screening Kit. The note with it: for inhibitory effect on CYP2D6: conclusion in words. In kind it is in vitro ADME. The protocol:
(§1) Experimental Example 6: CYP Enzyme Inhibition Test CYP450 is the most important enzyme system in drug metabolism. The enzymes involved in metabolism interact with drugs, and the most important ones are CYP1A2, CYP2D6 and CYP3A4. P450-Glo™ CYP1A2 Screening System, Vivid® CYP2D6 Cyan Screening Kit and Vivid® CYP3A4 Red Screening Kit were used in this test, and the inhibitory effects of the compounds on CYP1A2, CYP2D6 and CYP3A4 were determined according to the instructions of the kit.

Another series deals with T4, CYP3A4 (Homo sapiens, UniProt P08684).
T4 construct: purchased
T4 sequence (P08684 whole entry): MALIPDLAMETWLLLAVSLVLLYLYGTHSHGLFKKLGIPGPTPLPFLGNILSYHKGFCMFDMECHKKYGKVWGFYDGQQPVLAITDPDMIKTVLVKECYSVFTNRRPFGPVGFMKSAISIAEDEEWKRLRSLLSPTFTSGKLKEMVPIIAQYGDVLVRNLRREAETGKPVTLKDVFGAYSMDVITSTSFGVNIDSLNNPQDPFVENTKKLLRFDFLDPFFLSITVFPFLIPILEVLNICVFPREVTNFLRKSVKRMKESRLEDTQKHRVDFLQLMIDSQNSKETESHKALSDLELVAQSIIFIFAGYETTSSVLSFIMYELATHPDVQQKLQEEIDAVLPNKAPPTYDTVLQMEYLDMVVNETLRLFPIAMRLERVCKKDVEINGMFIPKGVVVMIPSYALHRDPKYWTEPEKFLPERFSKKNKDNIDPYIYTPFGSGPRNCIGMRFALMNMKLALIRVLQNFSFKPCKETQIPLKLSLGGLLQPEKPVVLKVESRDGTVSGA
In words: CYP enzyme inhibition test, Vivid CYP3A4 Red Screening Kit. It is filed as in vitro ADME. The note with it: for inhibitory effect on CYP3A4: conclusion in words. The procedure:
as §1

T1 sequence (Q96P20 whole entry): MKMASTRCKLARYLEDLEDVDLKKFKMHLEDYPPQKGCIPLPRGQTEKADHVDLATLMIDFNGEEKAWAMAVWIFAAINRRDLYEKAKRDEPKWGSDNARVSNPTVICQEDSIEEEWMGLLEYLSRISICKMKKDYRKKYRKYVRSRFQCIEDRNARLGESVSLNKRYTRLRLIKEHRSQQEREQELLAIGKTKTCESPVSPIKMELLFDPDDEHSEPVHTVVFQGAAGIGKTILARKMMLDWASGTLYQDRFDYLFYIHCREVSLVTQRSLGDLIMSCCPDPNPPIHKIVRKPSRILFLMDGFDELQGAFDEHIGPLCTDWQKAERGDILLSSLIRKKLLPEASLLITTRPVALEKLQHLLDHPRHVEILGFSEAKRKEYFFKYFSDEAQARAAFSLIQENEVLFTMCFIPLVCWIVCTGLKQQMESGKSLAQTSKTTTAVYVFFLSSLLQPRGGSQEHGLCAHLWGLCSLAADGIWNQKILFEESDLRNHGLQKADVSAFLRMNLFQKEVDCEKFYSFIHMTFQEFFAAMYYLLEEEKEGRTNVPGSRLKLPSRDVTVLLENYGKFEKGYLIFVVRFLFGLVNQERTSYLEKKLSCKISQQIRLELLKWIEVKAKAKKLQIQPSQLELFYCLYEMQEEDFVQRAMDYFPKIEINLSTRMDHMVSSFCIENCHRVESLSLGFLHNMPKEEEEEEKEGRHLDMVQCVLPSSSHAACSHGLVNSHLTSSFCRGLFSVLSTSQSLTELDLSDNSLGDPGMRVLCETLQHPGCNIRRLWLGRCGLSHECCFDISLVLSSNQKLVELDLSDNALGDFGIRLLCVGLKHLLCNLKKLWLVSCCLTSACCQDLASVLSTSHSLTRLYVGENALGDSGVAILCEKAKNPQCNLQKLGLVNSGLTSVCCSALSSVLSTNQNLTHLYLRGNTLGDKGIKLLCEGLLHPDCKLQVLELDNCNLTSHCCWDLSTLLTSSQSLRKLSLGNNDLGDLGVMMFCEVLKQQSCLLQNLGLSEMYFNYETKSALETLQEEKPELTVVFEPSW
T3 sequence (P10635 whole entry): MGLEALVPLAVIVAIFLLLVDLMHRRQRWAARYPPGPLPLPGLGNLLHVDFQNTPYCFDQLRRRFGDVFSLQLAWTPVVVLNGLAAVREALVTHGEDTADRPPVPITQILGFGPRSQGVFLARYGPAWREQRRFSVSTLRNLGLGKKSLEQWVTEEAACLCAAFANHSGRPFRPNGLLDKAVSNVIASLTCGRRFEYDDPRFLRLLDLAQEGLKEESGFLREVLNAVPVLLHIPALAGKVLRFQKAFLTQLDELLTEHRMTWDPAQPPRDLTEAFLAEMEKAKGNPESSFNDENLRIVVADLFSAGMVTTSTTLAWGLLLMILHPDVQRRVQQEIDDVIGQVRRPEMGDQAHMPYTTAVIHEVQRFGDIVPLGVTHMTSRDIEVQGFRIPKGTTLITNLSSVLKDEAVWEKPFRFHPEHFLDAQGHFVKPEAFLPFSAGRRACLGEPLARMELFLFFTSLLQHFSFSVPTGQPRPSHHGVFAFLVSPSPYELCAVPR

On to `C[C@@H]1CN(CCNc2cc(N)nc3cc(-c4ccn[nH]4)sc23)C[C@@H](C)O1` [Compound 124, N^7-(2-((2R,6R)-2,6-dimethylmorpholino)ethyl)-2-(1H-pyrazol-5-yl)thieno[3,2-b]pyridine-5,7-diamine], for which, on hNLRP3 inflammasome, the response was half-maximal at 0.05 µM (EC50). For the same compound, on hTLR7, the EC50 (usually the midpoint of the concentration-response curve) is more than 100 µM. On CYP2D6, the IC50 (commonly the concentration that gives 50% inhibition) is more than 10 µM and the “inhibitory effect on CYP2D6” value is “no apparent inhibitory effects”. Moreover, at CYP3A4, the IC50 is more than 10 µM and the “inhibitory effect on CYP3A4” value was “no apparent inhibitory effects”.
`C[C@@H](CCO)Nc1cc(N)nc2cc(-c3ccn[nH]3)sc12` [Compound 125, (S)-3-((5-amino-2-(1H-pyrazol-5-yl)thieno[3,2-b]pyridin-7-yl)amino)butanol]: the EC50 on hNLRP3 inflammasome is 0.03 µM; at hTLR7, more than 100 µM. Also, the IC50 against CYP2D6 and against CYP3A4 was more than 10 µM in each case. Further, the “inhibitory effect on CYP2D6” value at CYP2D6 is reported as “no apparent inhibitory effects”. In addition, at CYP3A4, the “inhibitory effect on CYP3A4” value is on record as “no apparent inhibitory effects”.
`COCCNc1cc(N)nc2c(C)c(-c3cc[nH]n3)sc12` [Compound 152]: the figures for the 50% effective concentration (EC50) at hNLRP3 inflammasome and at hTLR7 were 2.75 µM and more than 100 µM, respectively.
